# Assays:
# [1] = test system: caspase-3 in HepG-2 cells; assay: Caspase-3 ELISA in treated HepG-2 cells; assay type: cell-based, human; conditions: HepG-2 cells treated at the IC50 value, mean ± SE, n = 3
# Description: (§1) Following the treatment of HepG-2, Caco-2, A549, and BJ-1 cells with the SB-CuO-NPs at their respective IC50 values, as illustrated in Figure 9 and detailed in Table 5, an assessment of the activities of the caspase-3 and Bcl-2 enzymes was conducted in the treated cells. […] This mechanism ultimately triggers apoptosis. Additionally, the increased activity of caspase-3 results in a decrease in the expression of cyclin D1 and CDK-2 mRNA, thereby promoting the arrest of the G1 phase of the cell cycle. Othman et al. further noted that the biosynthesized M-NPs facilitate apoptosis by inhibiting the expression of the PI3K/AKT and Ras/Raf/ERK protein signaling pathways.
# (§2) Invitrogen Corporation, following the manufacturer's instructions.
# Bcl-2 in HepG-2 cells = assay: Bcl-2 ELISA in treated HepG-2 cells; assay type: cell-based, human; conditions: HepG-2 cells treated at the IC50 value, mean ± SE, n = 3
# Description: as §1, §2
# [2] = test system: caspase-3 in Caco-2 cells; assay: Caspase-3 ELISA in treated Caco-2 cells; assay type: cell-based, human; conditions: Caco-2 cells treated at the IC50 value, mean ± SE, n = 3
# Description: as §1, §2
# Bcl-2 in Caco-2 cells = assay: Bcl-2 ELISA in treated Caco-2 cells; assay type: cell-based, human; conditions: Caco-2 cells treated at the IC50 value, mean ± SE, n = 3
# Description: as §1, §2
# caspase-3 in A549 cells = assay: Caspase-3 ELISA in treated A549 cells; assay type: cell-based, human; conditions: A549 cells treated at the IC50 value, mean ± SE, n = 3
# Description: as §1, §2
# Bcl-2 in A549 cells = assay: Bcl-2 ELISA in treated A549 cells; assay type: cell-based, human; conditions: A549 cells treated at the IC50 value, mean ± SE, n = 3
# Description: as §1, §2
# caspase-3 in BJ-1 cells = assay: Caspase-3 ELISA in treated BJ-1 cells; assay type: cell-based, human; conditions: BJ-1 cells treated at the IC50 value, mean ± SE, n = 3
# Description: as §1, §2
# Bcl-2 in BJ-1 cells = assay: Bcl-2 ELISA in treated BJ-1 cells; assay type: cell-based, human; conditions: BJ-1 cells treated at the IC50 value, mean ± SE, n = 3
# Description: as §1, §2
# [3] = test system: human lung cancer (A549) cell line; assay: MTT cytotoxicity, A549
# MTT cytotoxicity, BJ-1 = conditions: human, BJ-1 normal fibroblast cells
# [4] = test system: normal human fibroblast (BJ-1) cell line; assay: MTT cytotoxicity, BJ-1; conditions: Homo sapiens, Fibroblast, 48 h, read-out: Median Inhibitory Concentration (IC50) BJ-1
# [5] = test system: human hepatocellular carcinoma (HepG-2) cell line; assay: MTT cytotoxicity, HepG-2
# [6] = test system: human colon cancer (Caco-2) cell line; assay: MTT cytotoxicity, Caco-2
# [7] = Total antioxidant capacity (TAC), phosphomolybdenum method; conditions: samples at 100 µg/mL; mean ± SE, n = 3
# Description: 1. Preparation of SB-CuO-NPs
# The copper oxide nanoparticles (CuO-NPs) were biosynthesized using a concentrated anhydrous copper sulfate solution (1 mM) as a metal precursor based […]
# dissolved in 100 ml of deionized water to form a 0.1 M concentration. The Schiff base (SB) was mixed with the metal solution in a ratio of 4:1. The SB-CuO-NPs was monitored by a color change. They were dried at 80 °C after centrifuging the colloidal solution at 4000 rpm for 15 min.
# 2. Characterization of the SB-CuO-NPs
# The spectra of the SB-CuO-NPs were characterized using a Shimadzu UV-VIS recording spectrophotometer UV-240 after diluting the samples (10-fold) with deionized water at λ 200 - 800 nm. Their surface zeta potentials were measured using the laser zeta meter (Malvern Zetasizer 2000, Malvern, Worcestershire, UK) following […]
# Moreover, their average hydrodynamic sizes were determined using the laser diffraction method with multiple scattering techniques employing dynamic light scattering (DLS) (Malvern Zetasizer Nano ZS, Malvern Instruments Ltd., Malvern, United Kingdom) (Murdock et al., 2008). […]
# All biological activities were assessed in the prepared samples at equal concentrations (100 µg/mL). […]
# After cooling to room temperature, the absorbance was measured at 695 nm against the blank. […] The antioxidant capacity was expressed as mg gallic acid equivalent per gram weight. […]
# [8] = Iron reducing power (IRP); conditions: samples at 100 µg/mL; mean ± SE, n = 3
# Description: ammonium molybdate. Methanol (80%) was used in place of the sample for the blank. The tubes were sealed and incubated in a boiling water bath for 90 minutes.
# After cooling to room temperature, the absorbance was measured at 695 nm against the blank. […] was used at the same concentrations as a standard. The antioxidant capacity was expressed as mg gallic acid equivalent per gram weight.
# The iron reducing power was determined as µg/mL using the method proposed by Oyaizu (1986). In brief, 1ml of the tested sample (at each concentration) was combined with 1mL of 200mM sodium phosphate buffer (pH 6.6) and 1mL of 1% potassium ferricyanide. […] The absorbance was measured at 700nm against a blank prepared without the sample. […] A high absorbance at 700nm indicates a higher reducing power in the reaction mixture.
# (§3) The 1,1-Diphenyl-2-picryl-hydrazyl (DPPH) radical scavenging activities were evaluated using the method described by Rahman et al. An antioxidant substance capable of donating a hydrogen atom to a solution containing DPPH- can reduce the stable free radical, causing the solution to change color from violet to pale yellow.
# The remaining DPPH- radical was quantified by measuring the intensity of a light-purple colored DPPH methanol solution in the visible range at 518 nm using a spectroscopic method. […]
# DPPH radical scavenging = conditions: mean ± SE, n = 3
# Description: as §3
# The remaining DPPH- radical was quantified by measuring the intensity of a light-purple colored DPPH methanol solution in the visible range at 518 nm using a spectroscopic method. Two mill iliters of a DPPH solution (100 µ M) in ethanol were mixed with 2 mL of the sample (at each concentration). The reaction mixture for each concentration was thoroughly vortexed and then incubated in the dark at room temperature for 30 minutes. The absorbance was then measured spectrophotometrically at 518 nm against a blank (ethanol). For the control, 2 mL of ethanol was added instead of the sample and run simultaneously with the test.
# Ascorbic acid was used at the same concentrations as a positive control. P ercent […]
# inhibition of the DPPH free radical was calculated. […]
# ABTS radical scavenging = conditions: mean ± SE, n = 3
# Description: The procedure for the 2,2'-azinobis-(3-ethylbenzothiazoline-6-sulfonic acid) (ABTS) […]
# solution (7 mM) and potassium persulfate solution (2.4 mM). The working solution was prepared by mixing the two stock solutions in equal quantities and allowing them to react at room temperature in a dark place for 14 hours. The solution was then diluted by mixing 1 mL of ABTS solution with 60 mL of methanol to obtain an absorbance of 0.706 ± 0.01 units at 734 nm using a spectrophotometer. Fresh ABTS solution was prepared for each assay. The tested samples (at each concentration) were allowed to react with 1 mL of the ABTS solution, and the absorbance was taken at 734 nm after 7 minutes using a spectrophotometer. […]
# NO radical scavenging = conditions: mean ± SE, n = 3
# Description: The in vitro biological applications of the SB and SB-CuO-NPs, including antioxidant, scavenging, anti-diabetic, anti-Alzheimer, anti-arthritic, anti-inflammatory, cytotoxic effects, and enzyme inhibition, were assessed using methods described in the literature (See Supplementary Materials).
# During the current study, the free radical scavenging capacity of SB-CuO-NPs, SB, and ascorbic acid (positive control) was evaluated using the DPPH, ABTS, and NO radical methods. The scavenging activity is used to predict antioxidant efficacy, a mechanism in which antioxidants inhibit lipid oxidation. The lower IC50 value indicates a stronger ability of the SB-CuO-NPs to act as radical scavengers, whereas the higher IC50 value indicates a lower scavenging activity. […] The lower the IC50 value, the greater the antioxidant activity.
# [9] = biological target: T1, 5-LOX enzyme (human recombinant) (Homo sapiens, UniProt P09917); assay: 5-Lipoxygenase inhibition assay; assay type: biochemical; conditions: at 100 µg/mL; mean ± SE, n = 3; read-out: 5-LOX Inhib. (%)
# T1 construct: purchased Sigma-Aldrich 437996
# T1 sequence (P09917 1-674): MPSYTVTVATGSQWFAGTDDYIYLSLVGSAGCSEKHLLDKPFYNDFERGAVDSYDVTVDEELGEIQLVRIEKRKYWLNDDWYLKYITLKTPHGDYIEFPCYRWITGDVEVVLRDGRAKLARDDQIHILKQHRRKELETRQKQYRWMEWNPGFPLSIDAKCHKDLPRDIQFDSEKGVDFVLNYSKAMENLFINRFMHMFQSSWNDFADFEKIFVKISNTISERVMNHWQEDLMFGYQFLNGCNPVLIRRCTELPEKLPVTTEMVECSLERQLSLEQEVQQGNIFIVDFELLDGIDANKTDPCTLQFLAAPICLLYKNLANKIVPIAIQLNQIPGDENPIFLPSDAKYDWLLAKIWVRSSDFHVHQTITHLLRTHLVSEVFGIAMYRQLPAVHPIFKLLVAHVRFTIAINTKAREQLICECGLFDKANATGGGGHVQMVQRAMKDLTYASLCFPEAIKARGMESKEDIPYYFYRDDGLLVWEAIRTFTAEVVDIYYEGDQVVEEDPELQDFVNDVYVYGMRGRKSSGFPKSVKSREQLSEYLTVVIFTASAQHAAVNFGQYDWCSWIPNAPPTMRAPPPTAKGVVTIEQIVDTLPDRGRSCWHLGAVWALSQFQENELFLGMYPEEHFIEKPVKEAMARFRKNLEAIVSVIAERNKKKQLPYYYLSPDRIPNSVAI
smiles,measurement,setting,value
"COc1cccc2c1C(=O)c1c(O)c3c(c(O)c1C2=O)C[C@@](O)(C(=O)CO)C[C@@H]3O[C@H]1C[C@H](N)[C@H](O)[C@H](C)O1 [Doxorubicin, reference compound]",Caspase-3,[1],306.04 ± 1.23 pg/mL
same,Bcl-2,Bcl-2 in HepG-2 cells,4.00 ± 0.02 ng/mL
same,Caspase-3,[2],265.13 ± 0.12 pg/mL
same,Bcl-2,Bcl-2 in Caco-2 cells,2.04 ± 0.01 ng/mL
same,Caspase-3,caspase-3 in A549 cells,247.96 ± 0.08 pg/mL
same,Bcl-2,Bcl-2 in A549 cells,4.51 ± 0.01 ng/mL
same,Caspase-3,caspase-3 in BJ-1 cells,200.43 ± 0.08 pg/mL
same,Bcl-2,Bcl-2 in BJ-1 cells,2.72 ± 0.01 ng/mL
same,viability at 6.25 µg/mL,[3]; A549,77.4%
same,viability at 12.5 µg/mL,[3]; A549,51%
same,viability at 25 µg/mL,[3]; A549,24.3%
same,viability at 50 µg/mL,[3]; A549,12.1%
same,viability at 100 µg/mL,[3]; A549,5.17%
same,IC50,"[3]; A549, 48 h, read-out: Median Inhibitory Concentration (IC50) A549",14.4 ± 1.12 µg/mL
same,"viability at 48 h, 6.25 μg/mL","MTT cytotoxicity, BJ-1",87.4%
same,"viability at 48 h, 12.5 μg/mL","MTT cytotoxicity, BJ-1",68%
same,"viability at 48 h, 25 μg/mL","MTT cytotoxicity, BJ-1",42.3%
same,"viability at 48 h, 50 μg/mL","MTT cytotoxicity, BJ-1",20.1%
same,"viability at 48 h, 100 μg/mL","MTT cytotoxicity, BJ-1",13.2%
same,IC50,[4],22 ± 1.51 µg/mL
same,viability at 6.25 µg/mL,[5]; HepG2,74.4%
same,viability at 12.5 µg/mL,[5]; HepG2,59%
same,viability at 25 µg/mL,[5]; HepG2,34.3%
same,viability at 50 µg/mL,[5]; HepG2,18.1%
same,viability at 100 µg/mL,[5]; HepG2,9.17%
same,IC50,"[5]; HepG2, 48 h, read-out: Median Inhibitory Concentration (IC50) HepG-2",15.5 ± 1.98 µg/mL
same,viability at 6.25 µg/mL,[6]; Caco-2,70.2%
same,viability at 12.5 µg/mL,[6]; Caco-2,35.2%
same,viability at 25 µg/mL,[6]; Caco-2,5.64%
same,viability at 50 µg/mL,[6]; Caco-2,4.48%
same,viability at 100 µg/mL,[6]; Caco-2,1.3%
same,IC50,"[6]; Caco-2, 48 h, read-out: Median Inhibitory Concentration (IC50) Caco-2",11.1 ± 1.09 µg/mL
"O=C1O[C@H]([C@@H](O)CO)C(O)=C1O [Ascorbic Acid, reference compound]",Antioxidant activity TAC,[7],83.75 ± 0.13 mg gallic acid/g
same,Antioxidant activity IRP,[8],66.00 ± 0.13 µg/mL
same,Scavenging activity DPPH Inhib. (%),DPPH radical scavenging; at 100 µg/mL,61.68 ± 0.12%
same,Scavenging activity DPPH IC50,DPPH radical scavenging,4.50 ± 0.03 µg/mL
same,Scavenging activity ABTS Inhib. (%),ABTS radical scavenging; at 100 µg/mL,65.43 ± 0.12%
same,Scavenging activity ABTS IC50,ABTS radical scavenging,3.99 ± 0.04 µg/mL
same,Scavenging activity NO Inhib. (%),NO radical scavenging; at 100 µg/mL,53.93 ± 0.12%
same,Scavenging activity NO IC50,NO radical scavenging,5.24 ± 0.02 µg/mL
"CC(c1cc2ccccc2s1)N(O)C(N)=O (centres unmarked) [Zileuton, reference compound]",inhibition at 100 µg/mL,[9],46.99 ± 0.13%

# From article PMC11859031, “Assessment of the In Vitro Biological Activities of Schiff Base-Synthesized Copper Oxide Nanoparticles as an Anti-Diabetic, Anti-Alzheimer, and Anti-Cancer Agent” (Pharmaceutics, 2025)
